# Experimental data as given in PubChem BioAssay (NCI).
#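 1) Cells in 96-well plates. 2) Compound, 48 h, 5 concentrations. 3) Linear interpolation between surrounding doses. 4) Unreached endpoint = highest concentration. Here, GI50 denotes the concentration required for 50% inhibition of growth. TGI denotes the concentration required for complete inhibition of growth.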
# Legend:
# Test in all cases: inhibition of tumour cell growth, NCI panel, 48 h
# SN12C renal = tested on: SN12C renal
# HCT-15 colon = tested on: HCT-15 colon
# CAKI-1 renal = tested on: CAKI-1 renal
# T-47D breast = tested on: T-47D breast
# UACC-257 melanoma = tested on: UACC-257 melanoma
# BT-549 breast = tested on: BT-549 breast
# SK-MEL-28 melanoma = tested on: SK-MEL-28 melanoma
# IGROV1 ovarian = tested on: IGROV1 ovarian
# TK-10 renal = tested on: TK-10 renal
# MDA-MB-231 breast = tested on: MDA-MB-231 breast
# NCI-H522 lung = tested on: NCI-H522 lung
# OVCAR-5 ovarian = tested on: OVCAR-5 ovarian
# U251 CNS = tested on: U251 CNS
# NCI/ADR-RES ovarian = tested on: NCI/ADR-RES ovarian
# LOX IMVI melanoma = tested on: LOX IMVI melanoma
# 786-0 renal = tested on: 786-0 renal
# MALME-3M melanoma = tested on: MALME-3M melanoma
# OVCAR-3 ovarian = tested on: OVCAR-3 ovarian
# A498 renal = tested on: A498 renal
# OVCAR-4 ovarian = tested on: OVCAR-4 ovarian
# HCT-116 colon = tested on: HCT-116 colon
# HOP-62 NSCLC = tested on: HOP-62 NSCLC
# A549 NSCLC = tested on: A549 NSCLC
# K-562 leukemia = tested on: K-562 leukemia
# KM12 colon = tested on: KM12 colon
# RPMI-8226 leukemia = tested on: RPMI-8226 leukemia
# NCI-H226 lung = tested on: NCI-H226 lung
# NCI-H460 lung = tested on: NCI-H460 lung
# MDA-MB-435 = tested on: MDA-MB-435
# OVCAR-8 ovarian = tested on: OVCAR-8 ovarian
# DU-145 prostate = tested on: DU-145 prostate
# SF-268 CNS = tested on: SF-268 CNS
# SNB-19 CNS = tested on: SNB-19 CNS
# UACC-62 melanoma = tested on: UACC-62 melanoma
# SK-MEL-5 melanoma = tested on: SK-MEL-5 melanoma
# HT29 colon = tested on: HT29 colon
# CCRF-CEM leukemia = tested on: CCRF-CEM leukemia
# PC-3 prostate = tested on: PC-3 prostate
# UO-31 renal = tested on: UO-31 renal
# SR leukemia = tested on: SR leukemia
# SK-MEL-2 melanoma = tested on: SK-MEL-2 melanoma
# HS 578T breast = tested on: HS 578T breast
# SK-OV-3 ovarian = tested on: SK-OV-3 ovarian
# SF-539 CNS = tested on: SF-539 CNS
# HL-60(TB) leukemia = tested on: HL-60(TB) leukemia
# COLO 205 colon = tested on: COLO 205 colon
# MOLT-4 leukemia = tested on: MOLT-4 leukemia
# MCF7 breast = tested on: MCF7 breast
# SW-620 colon = tested on: SW-620 colon
# SF-295 CNS = tested on: SF-295 CNS
# EKVX NSCLC = tested on: EKVX NSCLC
# SNB-75 CNS = tested on: SNB-75 CNS
# ACHN renal = tested on: ACHN renal
# NCI-H23 lung = tested on: NCI-H23 lung
compound,measurement,setting,value
C#CCN=C(N/N=C/c1ccc([N+](=O)[O-])o1)NS(=O)(=O)c1cc(C)c(Cl)cc1SCC(N)=O,GI50,SN12C renal,15.5 µM
same,TGI,SN12C renal,29.4 µM
same,GI50,HCT-15 colon,22.1 µM
same,TGI,HCT-15 colon,56.4 µM
same,GI50,CAKI-1 renal,25.7 µM
same,TGI,CAKI-1 renal,45.1 µM
same,GI50,T-47D breast,18.8 µM
same,TGI,T-47D breast,34.9 µM
same,GI50,UACC-257 melanoma,13.9 µM
same,TGI,UACC-257 melanoma,27 µM
same,GI50,BT-549 breast,1.79 µM
same,TGI,BT-549 breast,9.43 µM
same,GI50,SK-MEL-28 melanoma,14.5 µM
same,TGI,SK-MEL-28 melanoma,32.7 µM
same,GI50,IGROV1 ovarian,13.9 µM
same,TGI,IGROV1 ovarian,27.2 µM
same,GI50,TK-10 renal,22.2 µM
same,TGI,TK-10 renal,38.3 µM
same,GI50,MDA-MB-231 breast,11.4 µM
same,TGI,MDA-MB-231 breast,26.4 µM
same,GI50,NCI-H522 lung,10 µM
same,TGI,NCI-H522 lung,23.3 µM
same,GI50,OVCAR-5 ovarian,19.9 µM
same,TGI,OVCAR-5 ovarian,34.5 µM
same,GI50,U251 CNS,22.6 µM
same,TGI,U251 CNS,84.9 µM
same,GI50,NCI/ADR-RES ovarian,94.3 µM
same,TGI,NCI/ADR-RES ovarian,> 100 µM
same,GI50,LOX IMVI melanoma,8.14 µM
same,TGI,LOX IMVI melanoma,35.2 µM
same,GI50,786-0 renal,19.4 µM
same,TGI,786-0 renal,36.5 µM
same,GI50,MALME-3M melanoma,13.6 µM
same,TGI,MALME-3M melanoma,27.7 µM
same,GI50,OVCAR-3 ovarian,24.9 µM
same,TGI,OVCAR-3 ovarian,41.1 µM
same,GI50,A498 renal,17.1 µM
same,TGI,A498 renal,32.7 µM
same,GI50,OVCAR-4 ovarian,16.5 µM
same,TGI,OVCAR-4 ovarian,33.3 µM
same,GI50,HCT-116 colon,8.03 µM
same,TGI,HCT-116 colon,20.3 µM
same,GI50,HOP-62 NSCLC,12.9 µM
same,TGI,HOP-62 NSCLC,25.7 µM
same,GI50,A549 NSCLC,18 µM
same,TGI,A549 NSCLC,35.3 µM
same,GI50,K-562 leukemia,23.7 µM
same,TGI,K-562 leukemia,52.5 µM
same,GI50,KM12 colon,18.8 µM
same,TGI,KM12 colon,38.9 µM
same,GI50,RPMI-8226 leukemia,12.8 µM
same,TGI,RPMI-8226 leukemia,34.5 µM
same,GI50,NCI-H226 lung,20.1 µM
same,TGI,NCI-H226 lung,40.5 µM
same,GI50,NCI-H460 lung,12.5 µM
same,TGI,NCI-H460 lung,29.9 µM
same,GI50,MDA-MB-435,> 100 µM
same,TGI,MDA-MB-435,> 100 µM
same,GI50,OVCAR-8 ovarian,13.8 µM
same,TGI,OVCAR-8 ovarian,29.6 µM
same,GI50,DU-145 prostate,11.6 µM
same,TGI,DU-145 prostate,24.5 µM
same,GI50,SF-268 CNS,15 µM
same,TGI,SF-268 CNS,35.8 µM
same,GI50,SNB-19 CNS,50.6 µM
same,TGI,SNB-19 CNS,> 100 µM
same,GI50,UACC-62 melanoma,47.3 µM
same,TGI,UACC-62 melanoma,> 100 µM
same,GI50,SK-MEL-5 melanoma,4.14 µM
same,TGI,SK-MEL-5 melanoma,15.2 µM
same,GI50,HT29 colon,26.3 µM
same,TGI,HT29 colon,> 100 µM
same,GI50,CCRF-CEM leukemia,22.2 µM
same,TGI,CCRF-CEM leukemia,57.4 µM
same,GI50,PC-3 prostate,20.4 µM
same,TGI,PC-3 prostate,38.7 µM
same,GI50,UO-31 renal,17.6 µM
same,TGI,UO-31 renal,31.4 µM
same,GI50,SR leukemia,17 µM
same,TGI,SR leukemia,50.1 µM
same,GI50,SK-MEL-2 melanoma,4.97 µM
same,TGI,SK-MEL-2 melanoma,18.3 µM
same,GI50,HS 578T breast,19.8 µM
same,TGI,HS 578T breast,49.5 µM
same,GI50,SK-OV-3 ovarian,49.2 µM
same,TGI,SK-OV-3 ovarian,> 100 µM
same,GI50,SF-539 CNS,17.3 µM
same,TGI,SF-539 CNS,31.7 µM
same,GI50,HL-60(TB) leukemia,21.1 µM
same,TGI,HL-60(TB) leukemia,> 100 µM
same,GI50,COLO 205 colon,26.9 µM
same,TGI,COLO 205 colon,84.4 µM
same,GI50,MOLT-4 leukemia,13.2 µM
same,TGI,MOLT-4 leukemia,31.9 µM
same,GI50,MCF7 breast,6.59 µM
same,TGI,MCF7 breast,22.5 µM
same,GI50,SW-620 colon,4.44 µM
same,TGI,SW-620 colon,17.1 µM
same,GI50,SF-295 CNS,22.8 µM
same,TGI,SF-295 CNS,47.1 µM
same,GI50,EKVX NSCLC,17.8 µM
same,TGI,EKVX NSCLC,32.2 µM
same,GI50,SNB-75 CNS,25.8 µM
same,TGI,SNB-75 CNS,59.8 µM
same,GI50,ACHN renal,16.7 µM
same,TGI,ACHN renal,36.8 µM
same,GI50,NCI-H23 lung,18.5 µM
same,TGI,NCI-H23 lung,33.1 µM
